From US20090306160A1, “METHODS FOR IMPROVING DRUG DISPOSITION” (priority 2005, published 2009)
Blank lines part the entries; values can stand above or below the molecule they belong to.

Tests used:
[1] = target: T1, MRP2 (Homo sapiens, UniProt Q92887); test: Vesicular uptake assay of [3H]LTC4 in membrane vesicles over-expressing MRP2; format: biochemical; details: [3H]LTC4 0.2 μM; for Vesicular uptake, AMP activation / Vesicular uptake, ATP activation: MRP2 vesicles
Protocol: (§1) In this assay ATP-dependent uptake into membrane vesicles with inside-out orientation is determined. Interaction of Compound I with ABC transporters is measured indirectly by incubating the purified membrane vesicles with known radioactive probe substrates ([^3H]LTC4 [0.2 μM] for MRP2-LTC4 stands for Leutriene C4- and [^3H]E1S [0.5 μM] -E1S stands for […]—for BCRP) in the presence and absence (negative control) of different concentrations of Compound I or a well-known positive control compound (Benzbromanone for MRP2 and Sulphasalazine for BCRP). As illustrated herein (Tables 2 and 3), Compound I inhibits [^3H]E1S as well as [^3H]LTC4 transport mediated by BCRP (IC50≅1 μM) and MRP2 (IC50≅50 μM), respectively.

[2] = target: T2, BCRP (Homo sapiens, UniProt Q9UNQ0); test: ATPase assay, reconstituted membranes expressing high levels of BCRP; format: biochemical
T2 sequence (Q9UNQ0 1-655): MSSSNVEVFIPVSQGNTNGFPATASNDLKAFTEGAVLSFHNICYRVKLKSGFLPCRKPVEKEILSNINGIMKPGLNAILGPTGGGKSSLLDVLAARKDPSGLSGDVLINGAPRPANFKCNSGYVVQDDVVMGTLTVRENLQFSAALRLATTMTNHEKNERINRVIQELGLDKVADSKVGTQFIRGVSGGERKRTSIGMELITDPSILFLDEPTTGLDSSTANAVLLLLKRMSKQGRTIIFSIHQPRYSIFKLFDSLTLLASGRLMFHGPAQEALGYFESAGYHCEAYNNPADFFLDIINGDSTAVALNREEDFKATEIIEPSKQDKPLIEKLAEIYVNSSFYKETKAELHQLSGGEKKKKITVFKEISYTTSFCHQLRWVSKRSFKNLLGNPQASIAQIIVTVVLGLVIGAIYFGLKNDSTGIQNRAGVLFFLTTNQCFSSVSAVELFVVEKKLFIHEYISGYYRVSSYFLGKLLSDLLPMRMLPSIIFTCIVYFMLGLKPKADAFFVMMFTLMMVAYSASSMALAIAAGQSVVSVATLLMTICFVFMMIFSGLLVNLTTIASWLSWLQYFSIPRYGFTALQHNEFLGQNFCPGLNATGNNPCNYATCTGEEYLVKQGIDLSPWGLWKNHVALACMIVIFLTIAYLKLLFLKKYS
Excerpt: (§2) In this assay the ABC transporters remove substrates out of reconstituted cell membranes by using ATP hydrolysis as an energy source. ATP hydrolysis yields inorganic phosphate (Pi), which can be detected by a simple colorimetric reaction. The amount of Pi liberated by the transporter is proportional to the activity of the transporter. Membrane preparations containing ABC transporters show a baseline ATPase activity that varies for different transporters. Transported substrates increase this baseline ATPase activity. […] No activation of the MDR1 efflux could be observed.

[3] = Caco-2 bi-directional permeability assay; format: in vitro ADME; details: human, Caco-2
Protocol: (§3) Alternatively, the in vitro transporter affinity of a drug substance can be determined and approximated by measuring the compound permeability across cells known to express ABC transporters, as e.g. the Caco-2 cell line. Interaction of Compound I with ABC transporter(s) is measured by determining the concentration-dependent compound transport across Caco-2 cell monolayers from the apical (AP) to basolateral (BL) as well as the basolateral to apical side.

[4] = tested on: Caco-2 cell monolayers; test: Caco-2 bi-directional permeability assay; format: in vitro ADME; details: Caco-2 cell monolayers
Protocol: as §3

[5] = target: MDR1 (Homo sapiens, UniProt P08183); test: ATPase assay, reconstituted membranes expressing high levels of MDR1; format: biochemical; details: for ATPase activity: MDR1 membranes
MDR1, sequence (P08183 whole entry, species assumed): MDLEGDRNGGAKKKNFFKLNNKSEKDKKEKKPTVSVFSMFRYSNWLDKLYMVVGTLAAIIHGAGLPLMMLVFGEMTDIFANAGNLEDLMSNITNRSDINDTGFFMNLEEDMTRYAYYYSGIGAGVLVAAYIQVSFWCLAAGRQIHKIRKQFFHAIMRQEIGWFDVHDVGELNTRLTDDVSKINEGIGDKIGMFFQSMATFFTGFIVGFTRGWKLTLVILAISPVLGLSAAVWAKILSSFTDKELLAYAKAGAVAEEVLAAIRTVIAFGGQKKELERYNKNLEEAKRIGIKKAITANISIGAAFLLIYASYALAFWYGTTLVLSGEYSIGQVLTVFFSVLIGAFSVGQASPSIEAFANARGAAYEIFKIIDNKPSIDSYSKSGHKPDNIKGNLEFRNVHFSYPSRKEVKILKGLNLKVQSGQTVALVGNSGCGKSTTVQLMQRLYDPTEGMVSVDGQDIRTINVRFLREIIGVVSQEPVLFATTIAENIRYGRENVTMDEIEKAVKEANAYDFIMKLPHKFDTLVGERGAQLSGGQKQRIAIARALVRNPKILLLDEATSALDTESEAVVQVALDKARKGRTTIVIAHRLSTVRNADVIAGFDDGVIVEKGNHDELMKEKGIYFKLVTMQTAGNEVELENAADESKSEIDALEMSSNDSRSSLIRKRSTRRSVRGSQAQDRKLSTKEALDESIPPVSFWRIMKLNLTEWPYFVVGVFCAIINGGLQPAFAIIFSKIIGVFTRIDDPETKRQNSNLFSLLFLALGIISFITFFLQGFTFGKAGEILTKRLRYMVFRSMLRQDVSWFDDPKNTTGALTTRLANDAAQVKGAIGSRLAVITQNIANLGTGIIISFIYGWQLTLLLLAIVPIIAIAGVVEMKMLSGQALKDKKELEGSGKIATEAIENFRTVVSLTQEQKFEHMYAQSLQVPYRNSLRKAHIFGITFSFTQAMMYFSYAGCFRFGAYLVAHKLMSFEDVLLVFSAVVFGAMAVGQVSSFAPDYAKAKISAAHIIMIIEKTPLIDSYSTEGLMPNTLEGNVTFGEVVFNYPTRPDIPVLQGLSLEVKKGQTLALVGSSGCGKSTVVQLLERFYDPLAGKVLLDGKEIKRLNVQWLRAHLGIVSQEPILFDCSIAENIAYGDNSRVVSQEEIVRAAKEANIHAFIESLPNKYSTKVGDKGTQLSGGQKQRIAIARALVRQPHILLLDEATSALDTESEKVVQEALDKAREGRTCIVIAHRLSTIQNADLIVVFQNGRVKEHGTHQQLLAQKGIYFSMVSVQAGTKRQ
Excerpt: as §2

[6] = target: T2, BCRP; test: Vesicular uptake assay of [3H]E1S in membrane vesicles over-expressing BCRP; format: biochemical; details: [3H]E1S 0.5 μM, read-out: IC50, inhibition of [3H]E1S transport mediated by BCRP
Protocol: as §1

[7] = target: T1, MRP2; test: ATPase assay, reconstituted membranes expressing high levels of MRP2; format: biochemical
Excerpt: as §2

T1 sequence (Q92887 whole entry, species assumed): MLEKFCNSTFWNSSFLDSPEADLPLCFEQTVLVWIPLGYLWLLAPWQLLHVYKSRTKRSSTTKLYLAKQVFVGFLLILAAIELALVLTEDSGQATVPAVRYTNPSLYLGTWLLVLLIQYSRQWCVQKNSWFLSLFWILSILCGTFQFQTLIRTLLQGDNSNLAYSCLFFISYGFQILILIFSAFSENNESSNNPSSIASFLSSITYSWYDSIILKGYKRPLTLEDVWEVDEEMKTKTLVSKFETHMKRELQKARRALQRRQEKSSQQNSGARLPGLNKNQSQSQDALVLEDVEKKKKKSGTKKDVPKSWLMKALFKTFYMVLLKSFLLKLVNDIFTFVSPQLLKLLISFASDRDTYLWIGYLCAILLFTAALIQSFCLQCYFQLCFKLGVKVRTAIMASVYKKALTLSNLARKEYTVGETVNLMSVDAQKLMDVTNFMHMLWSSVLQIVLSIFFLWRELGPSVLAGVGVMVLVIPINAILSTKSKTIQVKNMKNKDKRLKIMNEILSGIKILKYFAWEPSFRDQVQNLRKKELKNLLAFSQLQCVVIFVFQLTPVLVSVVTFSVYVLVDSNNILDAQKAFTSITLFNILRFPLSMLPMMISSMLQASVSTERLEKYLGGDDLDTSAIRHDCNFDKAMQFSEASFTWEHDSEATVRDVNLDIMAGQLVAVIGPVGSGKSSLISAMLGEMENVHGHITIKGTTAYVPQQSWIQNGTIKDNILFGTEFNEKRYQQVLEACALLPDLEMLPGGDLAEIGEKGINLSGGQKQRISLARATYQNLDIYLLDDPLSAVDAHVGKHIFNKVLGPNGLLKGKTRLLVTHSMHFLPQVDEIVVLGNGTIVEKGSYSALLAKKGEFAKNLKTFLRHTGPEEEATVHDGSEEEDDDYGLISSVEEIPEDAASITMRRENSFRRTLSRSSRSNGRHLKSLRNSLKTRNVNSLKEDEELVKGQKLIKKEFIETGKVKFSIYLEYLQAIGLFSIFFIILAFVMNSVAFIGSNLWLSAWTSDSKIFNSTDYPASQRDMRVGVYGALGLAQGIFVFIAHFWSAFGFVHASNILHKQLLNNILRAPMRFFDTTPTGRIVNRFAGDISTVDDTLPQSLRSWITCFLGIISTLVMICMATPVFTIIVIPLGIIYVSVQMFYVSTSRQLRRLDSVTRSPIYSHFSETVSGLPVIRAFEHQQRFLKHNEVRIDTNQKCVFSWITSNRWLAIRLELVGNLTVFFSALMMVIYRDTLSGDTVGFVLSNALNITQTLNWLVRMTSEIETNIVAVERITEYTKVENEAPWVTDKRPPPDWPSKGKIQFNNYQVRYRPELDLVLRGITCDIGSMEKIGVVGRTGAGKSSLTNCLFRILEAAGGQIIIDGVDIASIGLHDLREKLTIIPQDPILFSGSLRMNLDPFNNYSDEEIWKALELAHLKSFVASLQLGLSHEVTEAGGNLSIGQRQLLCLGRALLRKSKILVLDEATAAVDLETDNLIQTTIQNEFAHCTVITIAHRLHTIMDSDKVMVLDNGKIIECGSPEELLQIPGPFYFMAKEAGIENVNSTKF

Vesicular uptake, AMP activation ([1]; positive control conc. 3000 μM): 11.1 pmol/mg/min
Vesicular uptake, ATP activation ([1]; positive control conc. 3000 μM): 10.8 pmol/mg/min
Compound: CCCCc1oc2ccccc2c1C(=O)c1cc(Br)c(O)c(Br)c1 [Benzbromanone, reference compound]

Vesicular uptake, AMP activation ([1]; compound conc. 10 μM): 5.4 pmol/mg/min
Vesicular uptake, ATP activation ([1]; compound conc. 10 μM): 25.6 pmol/mg/min
Vesicular uptake, AMP activation ([1]; compound conc. 100 μM): 5.8 pmol/mg/min
Vesicular uptake, ATP activation ([1]; compound conc. 100 μM): 11.5 pmol/mg/min
IC50 ([1]; membrane vesicles, read-out: IC50, inhibition of [3H]LTC4 transport mediated by MRP2): ~50 µM
ATPase activity ([2]; Compound I 0.04 μM): 32.9 ± 1.0 nmol Pi/min/mg protein
ATPase activity ([2]; Compound I 0.13 μM): 35.5 ± 0.8 nmol Pi/min/mg protein
ATPase activity ([2]; Compound I 0.40 μM): 34.2 ± 8.0 nmol Pi/min/mg protein
ATPase activity ([2]; Compound I 1.21 μM): 49.4 ± 0.5 nmol Pi/min/mg protein
ATPase activity ([2]; Compound I 3.63 μM): 61.1 ± 0.3 nmol Pi/min/mg protein
ATPase activity ([2]; Compound I 10.89 μM): 65.9 ± 0.1 nmol Pi/min/mg protein
ATPase activity ([2]; Compound I 32.67 μM): 65.7 ± 0.5 nmol Pi/min/mg protein
ATPase activity ([2]; Compound I 98.0 μM): 60.3 ± 1.6 nmol Pi/min/mg protein
Papp A→B at 1 μM ([3]; apical to basolateral, conc. 1 μM, read-out: Caco-2 permeability Papp(AP-BL) (converted)): 1 ×10⁻⁶ cm/s
Papp A→B at 5 μM ([3]; apical to basolateral, conc. 5 μM, read-out: Caco-2 permeability Papp(AP-BL) (converted)): 7.67 ×10⁻⁶ cm/s
Papp A→B at 10 μM ([3]; apical to basolateral, conc. 10 μM, read-out: Caco-2 permeability Papp(AP-BL) (converted)): 11.6 ×10⁻⁶ cm/s
Papp A→B at 50 μM ([3]; apical to basolateral, conc. 50 μM, read-out: Caco-2 permeability Papp(AP-BL) (converted)): 14.6 ×10⁻⁶ cm/s
Papp B→A at 1 μM ([3]; basolateral to apical, conc. 1 μM, read-out: Caco-2 permeability Papp(BL-AP) (converted)): 15.5 ×10⁻⁶ cm/s
Papp B→A at 5 μM ([3]; basolateral to apical, conc. 5 μM, read-out: Caco-2 permeability Papp(BL-AP) (converted)): 23.8 ×10⁻⁶ cm/s
Papp B→A at 10 μM ([3]; basolateral to apical, conc. 10 μM, read-out: Caco-2 permeability Papp(BL-AP) (converted)): 22.2 ×10⁻⁶ cm/s
Papp B→A at 50 μM ([3]; basolateral to apical, conc. 50 μM, read-out: Caco-2 permeability Papp(BL-AP) (converted)): 21.5 ×10⁻⁶ cm/s
concentration at which bi-directional permeability values converge (complete efflux transporter saturation) [4]: about 50 μM
ATPase activity ([5]; Compound I 0.04 μM): 18.7 ± 0.6 nmol Pi/min/mg protein
ATPase activity ([5]; Compound I 0.13 μM): 18.0 ± 0.7 nmol Pi/min/mg protein
ATPase activity ([5]; Compound I 0.40 μM): 17.4 ± 1.3 nmol Pi/min/mg protein
ATPase activity ([5]; Compound I 1.21 μM): 17.0 ± 1.0 nmol Pi/min/mg protein
ATPase activity ([5]; Compound I 3.63 μM): 17.3 ± 0.3 nmol Pi/min/mg protein
ATPase activity ([5]; Compound I 10.89 μM): 17.3 ± 0.5 nmol Pi/min/mg protein
ATPase activity ([5]; Compound I 32.67 μM): 17.3 ± 0.4 nmol Pi/min/mg protein
ATPase activity ([5]; Compound I 98.0 μM): 16.7 ± 0.5 nmol Pi/min/mg protein
activation of the MDR1 efflux (ATPase) ([5]; reconstituted membranes expressing high levels of MDR1): No activation
IC50 [6]: ~1 µM
ATPase activity ([7]; Compound I 0.04 μM): 5.1 ± 0.6 nmol Pi/min/mg protein
ATPase activity ([7]; Compound I 0.13 μM): 5.4 ± 0.3 nmol Pi/min/mg protein
ATPase activity ([7]; Compound I 0.40 μM): 5.4 ± 0.1 nmol Pi/min/mg protein
ATPase activity ([7]; Compound I 1.21 μM): 5.1 ± 0.4 nmol Pi/min/mg protein
ATPase activity ([7]; Compound I 3.63 μM): 5.0 ± 0.0 nmol Pi/min/mg protein
ATPase activity ([7]; Compound I 10.89 μM): 5.2 ± 0.4 nmol Pi/min/mg protein
ATPase activity ([7]; Compound I 32.67 μM): 6.3 ± 0.2 nmol Pi/min/mg protein
ATPase activity ([7]; Compound I 98.0 μM): 8.3 ± 0.7 nmol Pi/min/mg protein
Compound: O=C(O)c1ccc(-n2nc(-c3ccccc3O)nc2-c2ccccc2O)cc1 [Compound I, 4-[3,5-bis(2-hydroxyphenyl)-[1,2,4]trizol-1-yl]benzoic acid]
efflux substrate identification ([4]; AP-BL vs BL-AP transport): substrate for one or several prominent efflux system(s)
Km ([4]; bi-directional transport, read-out: apparent Km of efflux transport): ~5 µM
